Measured values from patent publication US9656962B2, “Ring-contracted morphinans and the use thereof” (Purdue Pharma L.P., priority 2013, dated 2017).

Target: μ-opioid receptor (Homo sapiens (Human), UniProt P35372)
Test: μ-opioid receptor [35S]GTPγS functional assay, HEK-293 cells (Table 6)
Type: biochemical
Settings: for Emax: relative to DAMGO; for EC50: μ GTP
Experimental: μ-Opioid Receptor Functional Assay Procedures: [^35S]GTPγS functional assays were conducted using freshly thawed μ-receptor membranes prepared in-house from a cell line expressing recombinant μ opioid receptor in a HEK-293, CHO or U-2 OS cell background, or purchased from a commercial source (Perkin Elmer, Shelton, Conn.; or DiscovRx, Fremont, Calif.). Assay reactions were prepared by sequentially adding the following reagents to binding buffer (100 mM NaCl, 10 mM MgCl2, 20 mM HEPES, pH 7.4) on ice (final concentrations indicated): membrane protein (0.026 mg/mL), saponin ([…]), GDP ([…]) and [^35S]GTPγS (0.20 nM; Perkin Elmer, Shelton, Conn.). The prepared membrane solution (190 μl/well) was transferred to 96-shallow well polypropylene plates containing 10 μl of 20× concentrated stock solutions of the agonist [D-Ala^2, N-methyl-Phe^4 Gly-ol^5]-enkephalin (DAMGO) prepared in dimethyl sulfoxide (DMSO). Plates were incubated for 30 min at about 25° C. with shaking Reactions were terminated by rapid filtration onto 96-well Unifilter GF/B filter plates (Perkin Elmer, Shelton, Conn.) using a 96-well tissue harvester (Perkin Elmer, Shelton, Conn.) followed by three filtration washes with 200 μl of ice-cold wash buffer (10 mM NaH2PO4, 10 mM Na2HPO4, pH 7.4). Filter plates were subsequently dried at 50° C. for 2-3 hours. BetaScint scintillation cocktail (Perkin Elmer, Shelton, Conn.) was added (50 μl/well) and plates were counted using a Packard Top-Count for 1 min/well. Data were analyzed using the sigmoidal dose-response curve fitting functions in GraphPad PRISM v. 3.0, or an in-house function for non-linear, sigmoidal dose-response curve-fitting. [^35S]GTPγS functional assays can also be conducted using freshly thawed μ-receptor membranes prepared from a cell line expressing recombinant μ opioid receptor in a CHO-K1 cell background.
μ GTP Emax (%) is the maximal effect elicited by a compound relative to the effect elicited by DAMGO, a standard μ agonist. Generally, the μ GTP Emax (%) value measures the efficacy of a compound to treat or prevent pain or other Conditions.
The following TABLE 6 provides results on the activity response of certain Compounds of the Invention at the μ- and κ-opioid receptors determined as described above using HEK-293 cells.

Row | Structure (SMILES) | Emax [%] | EC50 (bound given in μM) [µM] | EC50 [µM]
1 | CN(C)CCN(C)C(=O)[C@@H]1C[C@]23CCN(C)[C@H](Cc4ccc(O)cc42)[C@]3(O)C1 [Compound 113, (2R,3aS,4R,9bS)-N-(2-(dimethylamino)-ethyl)-3a,8-dihydroxy-N,12-dimethyl-1,2,3,3a,4,5-hexahydro-4,9b-(epimino-ethano)cyclopenta[a]naphthalene-2-carboxamide] | -1 | > 20 | –
2 | O=C(NCc1ccc(O)c(Cl)c1)[C@@H]1C[C@]23CCN(CC4CC4)[C@H](Cc4ccc(O)cc42)[C@]3(O)C1 [Compound 128, (2R,3aS,4R,9bS)-N-(3-chloro-4-hydroxybenzyl)-12-(cyclopropylmethyl)-3a,8-dihydroxy-1,2,3,3a,4,5-hexahydro-4,9b-(epiminoethano)cyclopenta-[a]naphthalene-2-carboxamide] | -1 | > 20 | –
3 | N#Cc1ccc2c(c1)[C@]13CCN(CC4CC4)[C@H](C2)[C@]1(O)C[C@@H](C(=O)NCCN1CCOCC1)C3 [Compound 123, (2S,3aS,4R,9bS)-8-cyano-12-(cyclopropylmethyl)-3a-hydroxy-N-(2-morpholinoethyl)-1,2,3,3a,4,5-hexahydro-4,9b-(epiminoethano)cyclopenta-[a]naphthalene-2-carboxamide] | 10.5 ± 1.07 | – | 2.92 ± 0.378
4 | CN1CC[C@]23C[C@H](C(=O)NCc4ccc(Cl)c(Cl)c4)C[C@@]2(O)[C@H]1Cc1ccc(O)cc13 [Compound 101, (2S,3aS,4R,9bS)-N-(3,4-dichlorobenzyl)-3a,8-dihydroxy-12-methyl-1,2,3,3a,4,5-hexahydro-4,9b-(epiminoethano)cyclo-penta[a]naphthalene-2-carboxamide] | 96.7 ± 2.19 | – | 0.00158 ± 0.00022
5 | O=C(NCc1ccc(F)cc1F)[C@H]1C[C@]23CCN(CC4CC4)[C@H](Cc4ccc(O)cc42)[C@]3(O)C1 [Compound 146, (2S,3aS,4R,9bS)-12-(cyclopropylmethyl)-N-(2,4-difluorobenzyl)-3a,8-dihydroxy-1,2,3,3a,4,5-hexahydro-4,9b-(epimino-ethano)cyclopenta[a]naphthalene-2-carboxamide] | 28.3 ± 1.13 | – | 0.00222 ± 0.00041
6 | O=C(NCc1ccc(Cl)cc1F)[C@@H]1C[C@]23CCN(CC4CC4)[C@H](Cc4ccc(O)cc42)[C@]3(O)C1 [Compound 136, (2R,3aS,4R,9bS)-N-(4-chloro-2-fluorobenzyl)-12-(cyclopropylmethyl)-3a,8-dihydroxy-1,2,3,3a,4,5-hexahydro-4,9b-(epiminoethano)cyclopenta-[a]naphthalene-2-carboxamide] | -0.33 ± 0.67 | > 20 | –
7 | O=C(NCc1ccc(O)c(O)c1)[C@@H]1C[C@]23CCN(CC4CC4)[C@H](Cc4ccc(O)cc42)[C@]3(O)C1 [Compound 140, (2R,3aS,4R,9bS)-12-(cyclopropylmethyl)-N-(3,4-dihydroxybenzyl)-3a,8-dihydroxy-1,2,3,3a,4,5-hexahydro-4,9b-(epimino-ethano)cyclopenta[a]naphthalene-2-carboxamide] | 0.33 ± 0.67 | > 20 | –
8 | O=C(NCc1cc(Cl)ccc1Cl)[C@@H]1C[C@]23CCN(CC4CC4)[C@H](Cc4ccc(O)cc42)[C@]3(O)C1 [Compound 151, (2R,3aS,4R,9bS)-12-(cyclopropylmethyl)-N-(2,5-dichlorobenzyl)-3a,8-dihydroxy-1,2,3,3a,4,5-hexahydro-4,9b-(epimino-ethano)cyclopenta[a]naphthalene-2-carboxamide] | -1 | > 20 | –
9 | O=C([C@H]1C[C@]23CCN(CC4CC4)[C@H](Cc4ccc(O)cc42)[C@]3(O)C1)N1CCN(c2ccccc2)CC1 [Compound 96, ((2S,3aS,4R,9bS)-12-(cyclopropylmethyl)-3a,8-dihydroxy-1,2,3,3a,4,5-hexahydro-4,9b-(epiminoethano)cyclopenta-[a]naphthalen-2-yl)(4-phenylpiperazin-1-yl)methanone] | 14.2 ± 2.5 | – | 0.0144 ± 0.00255
10 | O=C(NCCc1ccc(Cl)c(Cl)c1)[C@@H]1C[C@]23CCN(CC4CC4)[C@H](Cc4ccc(O)cc42)[C@]3(O)C1 [Compound 131, (2R,3aS,4R,9bS)-12-(cyclopropylmethyl)-N-(3,4-dichlorophenethyl)-3a,8-dihydroxy-1,2,3,3a,4,5-hexahydro-4,9b-(epiminoethano)cyclopenta[a]naphthalene-2-carboxamide] | 1 | > 20 | –
11 | O=C(NCc1cccc(O)c1)[C@@H]1C[C@]23CCN(CC4CC4)[C@H](Cc4ccc(O)cc42)[C@]3(O)C1 [Compound 142, (2R,3aS,4R,9bS)-12-(cyclopropylmethyl)-3a,8-dihydroxy-N-(3-hydroxybenzyl)-1,2,3,3a,4,5-hexahydro-4,9b-(epimino-ethano)cyclopenta[a]naphthalene-2-carboxamide] | 0 | > 20 | –
12 | Cc1c(Cl)cccc1CNC(=O)[C@H]1C[C@]23CCN(CC4CC4)[C@H](Cc4ccc(O)cc42)[C@]3(O)C1 [Compound 138, (2S,3aS,4R,9bS)-N-(3-chloro-2-methylbenzyl)-12-(cyclopropylmethyl)-3a,8-dihydroxy-1,2,3,3a,4,5-hexahydro-4,9b-(epiminoethano)cyclopenta-[a]naphthalene-2-carboxamide] | 52.4 ± 1.72 | – | 0.00071 ± 6.8e-05
13 | CN1CC[C@]23C[C@H](NC(=O)c4ccccc4)C[C@@]2(O)[C@H]1Cc1ccc(O)cc13 [Compound 109, N-((2S,3aS,4R,9bR)-3a,8-dihydroxy-12-methyl-1,2,3,3a,4,5-hexahydro-4,9b-(epiminoethano)cyclopenta[a]naphthalen-2-yl)benzamide] | 70.4 ± 0.98 | – | 0.0804 ± 0.0141
14 | O=C(NCCN1CCCCC1)[C@H]1C[C@]23CCN(CC4CC4)[C@H](Cc4ccc(O)cc42)[C@]3(O)C1 [Compound 133, (2S,3aS,4R,9bS)-12-(cyclopropylmethyl)-3a,8-dihydroxy-N-(2-(piperidin-1-yl)ethyl)-1,2,3,3a,4,5-hexahydro-4,9b-(epiminoethano)cyclopenta[a]naphthalene-2-carboxamide] | 29.8 ± 1.22 | – | 0.0142 ± 0.00373
15 | O=C(NCCc1ccc(Cl)cc1Cl)[C@@H]1C[C@]23CCN(CC4CC4)[C@H](Cc4ccc(O)cc42)[C@]3(O)C1 [Compound 130, (2R,3aS,4R,9bS)-12-(cyclopropylmethyl)-N-(2,4-dichlorophenethyl)-3a,8-dihydroxy-1,2,3,3a,4,5-hexahydro-4,9b-(epiminoethano)cyclopenta[a]naphthalene-2-carboxamide] | 0 | > 20 | –
16 | CN1CC[C@]23C[C@@H](C(=O)NCc4ccc(Cl)cc4Cl)C[C@@]2(O)[C@H]1Cc1ccc(O)cc13 [Compound 103, (2R,3aS,4R,9bS)-N-(2,4-dichlorobenzyl)-3a,8-dihydroxy-12-methyl-1,2,3,3a,4,5-hexahydro-4,9b-(epiminoethano)cyclo-penta[a]naphthalene-2-carboxamide] | 68 ± 9.54 | – | 0.389 ± 0.0733
17 | Cc1ccc(CNC(=O)[C@@H]2C[C@]34CCN(CC5CC5)[C@H](Cc5ccc(O)cc53)[C@]4(O)C2)cc1Cl [Compound 126, (2R,3aS,4R,9bS)-N-(3-chloro-4-methylbenzyl)-12-(cyclopropylmethyl)-3a,8-dihydroxy-1,2,3,3a,4,5-hexahydro-4,9b-(epiminoethano)cyclopenta-[a]naphthalene-2-carboxamide] | -1 | > 20 | –
18 | Cc1ccc(CNC(=O)[C@H]2C[C@]34CCN(CC5CC5)[C@H](Cc5ccc(C#N)cc53)[C@]4(O)C2)cc1 [Compound 121, (2S,3aS,4R,9bS)-8-cyano-12-(cyclopropylmethyl)-3a-hydroxy-N-(4-methylbenzyl)-1,2,3,3a,4,5-hexahydro-4,9b-(epiminoethano)cyclopenta-[a]naphthalene-2-carboxamide] | 29.3 ± 1.78 | – | 1.09 ± 0.0702
19 | O=C(NCCc1ccc(Cl)cc1)[C@@H]1C[C@]23CCN(CC4CC4)[C@H](Cc4ccc(O)cc42)[C@]3(O)C1 [Compound 129, (2R,3aS,4R,9bS)-N-(4-chlorophenethyl)-12-(cyclopropylmethyl)-3a,8-dihydroxy-1,2,3,3a,4,5-hexahydro-4,9b-(epimino-ethano)cyclopenta[a]naphthalene-2-carboxamide] | 1 | > 20 | –
20 | N#Cc1ccc2c(c1)[C@]13CCN(CC4CC4)[C@H](C2)[C@]1(O)C[C@H](C(=O)NCCN1CCOCC1)C3 [Compound 122, (2R,3aS,4R,9bS)-8-cyano-12-(cyclopropylmethyl)-3a-hydroxy-N-(2-morpholinoethyl)-1,2,3,3a,4,5-hexahydro-4,9b-(epiminoethano)cyclopenta-[a]naphthalene-2-carboxamide] | 0.33 ± 0.67 | > 20 | –
